In brackets after ≈: the same amount, converted by molar mass. Where a SMILES comes first, the peptide text is derived from it.
Key:
S. aureus ATCC29213 = experiment: MIC, broth dilution; assay type: cell-based, Staphylococcus aureus; conditions: CLSI broth dilution, MHB, 6.25 × 10^5 cfu per ml, 37°C, 20 h, OD630, at least three repeats
Description: (§1) All experiments were repeated at least three times.
(§2) To study the influence of physiological ions on the antimicrobial activities of the peptides, The MICs of the peptides were also determined against the standard bacterial strains cultured in MHB containing various salts at their physiological concentrations (150 mM NaCl, 4.5 mM KCl, 1 mM MgCl2, 2 mM CaCl2, 6 μM NH4HCO3, and 4 μM FeCl3) ([Ma et al., 2016]).

A. baumannii = conditions: summary of Table 4
Description: The MIC determination was performed using the broth dilution method according to the guidelines of the Clinical and Laboratory Standards Institute (CLSI) ([Cao et al., 2012]; [Mourtada et al., 2019]). Briefly, the bacterial cells were incubated in Mueller-Hinton broth (MHB, Oxoid) at 37°C and 150 rpm, after overnight incubation, the bacteria were transferred to new broth until the exponential phase of growth (OD630 = 0.4). After that, the bacteria were diluted with fresh MHB to 160 μl and prepared in a sterile 96-well polypropylene plate to achieve a final concentration of 6.25 × 10^5 colony forming units (cfu) per ml. Two-fold dilutions of the peptides in 0.9% sodium chloride (40 μl) were added to each well to achieve the final peptide concentrations ranging from 1.25 to 80 μg ml^–1. […] All experiments were repeated at least three times.

E. faecalis ATCC 29212 = experiment: MIC, broth dilution; assay type: cell-based; conditions: CLSI broth dilution, MHB, 37°C, 20 h, OD630, at least three repeats; standard strain
Description: as §1, §2

K. pneumoniae 9126 = experiment: MIC, broth dilution; assay type: cell-based, Klebsiella pneumoniae; conditions: CLSI broth dilution, MHB, 37°C, 20 h, OD630, at least three repeats; clinical isolate, CRE
From the text: as §1

E. coli ATCC35218 = experiment: MIC, broth dilution; assay type: cell-based, Escherichia coli; conditions: CLSI broth dilution, MHB, 37°C, 20 h, OD630, at least three repeats; standard strain
From the text: as §1

E. coli 2678 = experiment: MIC, broth dilution; assay type: cell-based, Escherichia coli; conditions: CLSI broth dilution, MHB, 37°C, 20 h, OD630, at least three repeats; clinical isolate, ESBL
From the text: as §1

E. coli 2687 = experiment: MIC, broth dilution; assay type: cell-based, Escherichia coli; conditions: CLSI broth dilution, MHB, 37°C, 20 h, OD630, at least three repeats; clinical isolate, ESBL
From the text: as §1

S. aureus 9124 = experiment: MIC, broth dilution; assay type: cell-based, Staphylococcus aureus; conditions: CLSI broth dilution, MHB, 37°C, 20 h, OD630, at least three repeats; clinical isolate, MRSA
From the text: as §1

S. aureus ATCC 25923 = experiment: MIC, broth dilution; assay type: cell-based, Staphylococcus aureus; conditions: CLSI broth dilution, MHB, 37°C, 20 h, OD630, at least three repeats; standard strain
From the text: as §1

S. aureus 4188 = experiment: MIC, broth dilution; assay type: cell-based, Staphylococcus aureus; conditions: CLSI broth dilution, MHB, 37°C, 20 h, OD630, at least three repeats; clinical isolate, penicillin-resistant
From the text: as §1

S. aureus 1176 = experiment: MIC, broth dilution; assay type: cell-based, Staphylococcus aureus; conditions: CLSI broth dilution, MHB, 37°C, 20 h, OD630, at least three repeats; clinical isolate
From the text: as §1

[1] = system: K. pneumoniae ATCC 700603; experiment: MIC, broth dilution; assay type: cell-based, Klebsiella pneumoniae; conditions: CLSI broth dilution, MHB, 37°C, 20 h, OD630, at least three repeats; standard strain
Description: as §1, §2

S. epidermidis 6943 = experiment: MIC, broth dilution; assay type: cell-based; conditions: CLSI broth dilution, MHB, 37°C, 20 h, OD630, at least three repeats; clinical isolate, MRSE
From the text: as §1

S. epidermidis 888 = experiment: MIC, broth dilution; assay type: cell-based; conditions: CLSI broth dilution, MHB, 37°C, 20 h, OD630, at least three repeats; clinical isolate
From the text: as §1

E. faecalis 901 = experiment: MIC, broth dilution; assay type: cell-based; conditions: CLSI broth dilution, MHB, 37°C, 20 h, OD630, at least three repeats; clinical isolate
From the text: as §1

S. epidermidis 9092 = experiment: MIC, broth dilution; assay type: cell-based; conditions: CLSI broth dilution, MHB, 37°C, 20 h, OD630, at least three repeats; clinical isolate, MRSE
From the text: as §1

P. aeruginosa 9014 = experiment: MIC, broth dilution; assay type: cell-based, Pseudomonas aeruginosa; conditions: CLSI broth dilution, MHB, 37°C, 20 h, OD630, at least three repeats; clinical isolate, CRE, MDR
From the text: as §1

P. aeruginosa 9042 = experiment: MIC, broth dilution; assay type: cell-based, Pseudomonas aeruginosa; conditions: CLSI broth dilution, MHB, 37°C, 20 h, OD630, at least three repeats; clinical isolate
From the text: as §1

P. aeruginosa ATCC 27853 = experiment: MIC, broth dilution; assay type: cell-based, Pseudomonas aeruginosa; conditions: CLSI broth dilution, MHB, 37°C, 20 h, OD630, at least three repeats; standard strain
Description: as §1, §2

A. baumannii 13079 = experiment: MIC, broth dilution; assay type: cell-based, Acinetobacter baumannii; conditions: CLSI broth dilution, MHB, 37°C, 20 h, OD630, at least three repeats; clinical isolate, CRE, MDR
From the text: as §1

A. baumannii 906 = experiment: MIC, broth dilution; assay type: cell-based, Acinetobacter baumannii; conditions: CLSI broth dilution, MHB, 37°C, 20 h, OD630, at least three repeats; clinical isolate, CRE, MDR
From the text: as §1

A. baumannii 9068 = experiment: MIC, broth dilution; assay type: cell-based, Acinetobacter baumannii; conditions: CLSI broth dilution, MHB, 37°C, 20 h, OD630, at least three repeats; clinical isolate, CRE, MDR
From the text: as §1

A. baumannii 13012 = experiment: MIC, broth dilution; assay type: cell-based, Acinetobacter baumannii; conditions: CLSI broth dilution, MHB, 37°C, 20 h, OD630, at least three repeats; clinical isolate, CRE, MDR
From the text: as §1

E. faecium 898 = experiment: MIC, broth dilution; assay type: cell-based, Enterococcus faecium; conditions: CLSI broth dilution, MHB, 37°C, 20 h, OD630, at least three repeats; clinical isolate
From the text: as §1

A. baumannii ATCC 19606 = experiment: MIC, broth dilution; assay type: cell-based, Acinetobacter baumannii; conditions: CLSI broth dilution, MHB, 37°C, 20 h, OD630, at least three repeats; standard strain
Description: as §1, §2

[2] = system: human red blood cells (hRBCs); experiment: Hemolytic activity determination; assay type: cell-based; conditions: hRBCs in 0.9% sodium chloride, 37°C, 1 h, OD540, 1% Triton X-100 = 100%, three independent experiments
Description: Fresh human red blood cells (hRBCs) were collected in a sterile borosilicate glass tube covered with sodium citrate as the anticoagulating agent. […] Two-fold dilutions of the peptides were prepared in 0.9% sodium chloride to 100 μl and mixed with equal volumn of hRBC suspension to final peptide concentrations ranging from 12.5 to 200 μg ml^–1. After co-incubation at 37°C for 1 h, the samples were centrifuged (2,000 × g, 4°C, 20 min), and the supernatant (100 μl) was taken for optical density (OD540) measurements (Asample). The hRBCs assayed with 0.9% sodium chloride (Ablank) or 1% Triton X-100 (Apositive) were applied as 0% and 100% hemolysis, respectively. Three independent experiments were performed and the percent hemolysis was calculated according to the following equation ([Yin et al., 2012]; [Li et al., 2016]):
Hemolysis(%)=100*(Asample-Ablank)/(Apositive-Ablank)

E. coli ATCC25922 = experiment: MIC, broth dilution; assay type: cell-based, Escherichia coli; conditions: CLSI broth dilution, MHB, 6.25 × 10^5 cfu per ml, 37°C, 20 h, OD630, at least three repeats
[3] = system: ESBL-producing E. coli, CRE- and MDR P. aeruginosa, CRE- and MDR A. baumannii; experiment: MIC, summary over resistant gram-negative strains; assay type: cell-based; conditions: summary of Table 4
From the text: as §1

| Compound | MIC (S. aureus ATCC29213) [µg/mL] | MIC (E. faecalis ATCC 29212) [µg/mL] | MIC (K. pneumoniae 9126) [µg/mL] | MIC (E. coli ATCC35218) [µg/mL] | MIC (E. coli 2678) [µg/mL] | MIC (E. coli 2687) [µg/mL] | MIC (S. aureus 9124) [µg/mL] | MIC (S. aureus ATCC 25923) [µg/mL] | MIC (S. aureus 4188) [µg/mL] | MIC (S. aureus 1176) [µg/mL] | MIC [1] [µg/mL] | MIC (S. epidermidis 6943) [µg/mL] | MIC (S. epidermidis 888) [µg/mL] | MIC (E. faecalis 901) [µg/mL] | MIC (S. epidermidis 9092) [µg/mL] | MIC (P. aeruginosa 9014) [µg/mL] | MIC (P. aeruginosa 9042) [µg/mL] | MIC (P. aeruginosa ATCC 27853) [µg/mL] | MIC (A. baumannii 13079) [µg/mL] | MIC (A. baumannii 906) [µg/mL] | also measured |
| --- | --- | --- | --- | --- | --- | --- | --- | --- | --- | --- | --- | --- | --- | --- | --- | --- | --- | --- | --- | --- | --- |
| CC[C@H](C)[C@H](NC(=O)[C@H](C)NC(=O)CNC(=O)[C@@H](NC(=O)[C@@H](N)Cc1ccccc1)[C@@H](C)CC)C(=O)N[C@@H](C)C(=O)N[C@@H](CCCNC(=N)N)C(=O)N[C@@H](CC(C)C)C(=O)N[C@@H](CC(C)C)C(=O)N[C@@H](CO)C(=O)N[C@@H](CCCCN)C(=O)N[C@H](C(=O)N[C@@H](Cc1ccccc1)C(N)=O)[C@@H](C)CC [BmKn2] (H-FIGAIARLLSKIF-NH2) | 10 (≈ 6.91 µM) | 10 (≈ 6.91 µM) | >80 | >80 | >80 | >80 | 2.5 (≈ 1.73 µM) | 5 (≈ 3.45 µM) | 5 (≈ 3.45 µM) | 2.5 (≈ 1.73 µM) | >80 | 5 (≈ 3.45 µM) | 5 (≈ 3.45 µM) | 10 (≈ 6.91 µM) | 5 (≈ 3.45 µM) | >80 | >80 | >80 | 10 (≈ 6.91 µM) | 10 (≈ 6.91 µM) | MIC against A. baumannii (A. baumannii): 5–10 μg ml^–1; MIC (A. baumannii 9068): 10 µg/mL (≈ 6.91 µM); MIC (A. baumannii 13012): 10 µg/mL (≈ 6.91 µM); MIC (E. faecium 898): 10 µg/mL (≈ 6.91 µM); MIC (A. baumannii ATCC 19606): 10 µg/mL (≈ 6.91 µM); percent hRBC hemolysis ([2]; peptide 25 μg ml^–1): 91.8%; MIC (E. coli ATCC25922): > 80 µg/mL |
| CC[C@H](C)[C@H](NC(=O)[C@H](CCCNC(=N)N)NC(=O)[C@H](CCCNC(=N)N)NC(=O)[C@@H](NC(=O)[C@@H](N)Cc1ccccc1)[C@@H](C)CC)C(=O)N[C@@H](C)C(=O)N[C@@H](CCCNC(=N)N)C(=O)N[C@@H](CC(C)C)C(=O)N[C@@H](CC(C)C)C(=O)N[C@@H](CCCNC(=N)N)C(=O)N[C@@H](CCCNC(=N)N)C(=O)N[C@H](C(=O)N[C@@H](Cc1ccccc1)C(N)=O)[C@@H](C)CC [BmKn2-7R] (H-FIRRIARLLRRIF-NH2) | 5 (≈ 2.89 µM) | 10 (≈ 5.78 µM) | 5 (≈ 2.89 µM) | 10 (≈ 5.78 µM) | 10 (≈ 5.78 µM) | 10 (≈ 5.78 µM) | 5 (≈ 2.89 µM) | 5 (≈ 2.89 µM) | 5 (≈ 2.89 µM) | 5 (≈ 2.89 µM) | 5 (≈ 2.89 µM) | 5 (≈ 2.89 µM) | 2.5 (≈ 1.45 µM) | 5 (≈ 2.89 µM) | 5 (≈ 2.89 µM) | 2.5 (≈ 1.45 µM) | 5 (≈ 2.89 µM) | 5 (≈ 2.89 µM) | 2.5 (≈ 1.45 µM) | 2.5 (≈ 1.45 µM) | MIC (A. baumannii 9068): 5 µg/mL (≈ 2.89 µM); MIC (A. baumannii 13012): 2.5 µg/mL (≈ 1.45 µM); MIC (E. faecium 898): 2.5 µg/mL (≈ 1.45 µM); MIC against ESBL E. coli, CRE/MDR P. aeruginosa, CRE/MDR A. baumannii [3]: 2.5–10 μg ml^–1; MIC (A. baumannii ATCC 19606): 2.5 µg/mL (≈ 1.45 µM); percent hRBC hemolysis ([2]; peptide 100 μg ml^–1): 73.1%; MIC (E. coli ATCC25922): 10 µg/mL (≈ 5.78 µM) |
| CC[C@H](C)[C@H](NC(=O)[C@H](CCCNC(=N)N)NC(=O)[C@H](CCCCN)NC(=O)[C@@H](NC(=O)[C@@H](N)Cc1ccccc1)[C@@H](C)CC)C(=O)N[C@@H](C)C(=O)N[C@@H](CCCNC(=N)N)C(=O)N[C@@H](CC(C)C)C(=O)N[C@@H](CC(C)C)C(=O)N[C@@H](CCCNC(=N)N)C(=O)N[C@@H](CCCCN)C(=O)N[C@H](C(=O)N[C@@H](Cc1ccccc1)C(N)=O)[C@@H](C)CC [BmKn2-7] (H-FIKRIARLLRKIF-NH2) | 5 (≈ 2.99 µM) | 5 (≈ 2.99 µM) | 10 (≈ 5.98 µM) | 10 (≈ 5.98 µM) | 20 (≈ 12 µM) | 10 (≈ 5.98 µM) | 5 (≈ 2.99 µM) | 5 (≈ 2.99 µM) | 5 (≈ 2.99 µM) | 5 (≈ 2.99 µM) | 10 (≈ 5.98 µM) | 5 (≈ 2.99 µM) | 5 (≈ 2.99 µM) | 5 (≈ 2.99 µM) | 5 (≈ 2.99 µM) | 10 (≈ 5.98 µM) | 20 (≈ 12 µM) | 10 (≈ 5.98 µM) | 2.5 (≈ 1.49 µM) | 5 (≈ 2.99 µM) | MIC (A. baumannii 9068): 5 µg/mL (≈ 2.99 µM); MIC (A. baumannii 13012): 5 µg/mL (≈ 2.99 µM); MIC (E. faecium 898): 5 µg/mL (≈ 2.99 µM); MIC (A. baumannii ATCC 19606): 5 µg/mL (≈ 2.99 µM); percent hRBC hemolysis ([2]; peptide 25 μg ml^–1): 6.9%; percent hRBC hemolysis ([2]; peptide 100 μg ml^–1): 41.0%; MIC (E. coli ATCC25922): 10 µg/mL (≈ 5.98 µM) |
